Source: patent US20250099475A1, “METHODS OF TREATING HYPERTENSION BY PERIODIC SUPPRESSION OF ALDOSTERONE SYNTHASE” (Mineralys Therapeutics, Inc., priority 2022, published 2025)

Legend:
plasma aldosterone (PAC) [1] = assay: Phase 1 part 2 multiple ascending dose: pharmacodynamics, ACTH challenge; format: in vivo, human; settings: for Aldosterone AUC0-24, mean (SD): Day 7; for return of baseline aldosterone levels by: multiple 120-mg doses
Description: In part 2, Compound A HBr or placebo was administered to a total of 36 healthy Caucasian men aged 19 to 54 years (inclusive) in 3 cohorts of 12 participants each. In each cohort, 9 participants were randomized to receive multiple doses of Compound A HBr and 3 participants were randomized to receive matching placebo. The participants received daily doses in the fed state from Day 1 to Day 7. The doses were administered in an ascending order per cohort. Progression to the next dose level and dose selection were based on available data from part 1 and the preceding dose cohort in part 2 (safety, tolerability, and PD data [up to 48 hours post-final dose] and available PK data [up to 24 hours post-final dose] from a minimum of 10 participants [Compound A HBr n≥7] in the preceding dose cohort). The final dose levels of Compound A HBr for part 2 were 40, 120, and 360 mg. An ACTH challenge test was performed on Day −2 and on Day 6 to evaluate Compound A HBr selectivity for aldosterone synthesis. Plasma concentrations of aldosterone and 11-deoxycortisol and serum concentrations of cortisol and 11-DOC were measured pre-ACTH dose and 30 and 60 minutes post-ACTH dose on Day −2 and Day 6.
(§1) Plasma concentrations of aldosterone, 11-deoxycortisol, and ACTH; renin activity; renin concentration; and serum concentrations of cortisol and 11-DOC were measured in all parts of the study. The amount of aldosterone, cortisol, sodium, and potassium excreted and the urinary log10 (10×Na^+/K^+) ratio were listed per collection interval.
(§2) PD parameters were derived by non-compartmental analysis using WinNonlin® Professional (version 6.3). AUC0-24 was determined where possible for plasma aldosterone and serum cortisol.
(§3) Log-transformed change from baseline (Day 1, pre-dose) at 24 hours and log-transformed change from baseline at 22 hours on Day 1 (where baseline is Day −1, 22 hours) in plasma aldosterone and serum cortisol were analyzed using a linear model with dose group (each Compound A HBr dose and pooled placebo) as a fixed effect with the corresponding Day 1 pre-dose as a covariate. The LSM difference between each Compound A HBr dose compared with placebo was obtained from the model with the 90% CI and then back-transformed (exponentiated) to obtain estimates of the ratio of adjusted geometric means and 90% CI. Log-transformed change from baseline (time-matched) from 0 to 24 hours post-dose in plasma aldosterone and serum cortisol as repeated measures was analyzed using a linear mixed model with dose group (each active Compound A HBr dose and pooled placebo) as fixed effects, corresponding time-matched values on Day −1 as covariate, and unstructured covariance. The pre-dose time point on Day 1 was used as the 24-hour time point on Day −1. The LSM difference between each Compound A HBr dose compared with placebo was obtained from the model together with the 90% CI, and then back-transformed to obtain estimates of the ratio of adjusted geometric means and 90% CIs. The calculated AUC parameters were analyzed using a linear model. The log-transformed parameter of interest was the dependent variable with dose group (each Compound A HBr dose and pooled placebo) as the fixed effect and log-transformed AUC0-24 on Day −1 as the covariate. The LSM difference between each Compound A HBr dose compared with placebo and 90% CIs was calculated and then back-transformed to obtain estimates of the ratio of adjusted geometric means and 90% CIs.

plasma aldosterone (PAC) [2] = assay: Phase 1 part 1 single ascending dose: pharmacodynamics; format: in vivo, human; settings: for PAC reduction compared with placebo: 24 hours post-dose; for Aldosterone AUC0-24, mean (SD): Day 1; for return of baseline aldosterone levels by: single 100-mg doses; for effect on cortisol: single ascending doses
Description: In part 1, Compound A HBr or placebo was administered to 64 healthy Caucasian men aged 18 to 55 years (inclusive) in 8 cohorts of 8 participants each. In each cohort, 6 participants were randomized to receive a single dose of Compound A HBr and 2 participants were randomized to receive matching placebo. All cohorts included 2 sentinel participants of whom 1 received Compound A HBr and 1 received matching placebo. The remaining 6 participants, of whom 5 received Compound A HBr and 1 received placebo, were dosed ≥24 hours following the sentinel participants. The dosing cohorts were 5, 10, 20, 50, 100, 200, 400, and 800 mg. Doses were administered in an ascending order per cohort, with a minimum 10-day interval between consecutive dose levels. Participants received a single dose of Compound A HBr or placebo in the fasted state.
as §1, §2, §3

[3] = Phase 1 safety and tolerability; format: in vivo, human
Description: A 4-part, Phase 1 randomized, double-blind, placebo-controlled, first-in-human study was performed to determine the safety, tolerability, PK, and PD of single ascending doses (SADs; part 1) and multiple ascending doses (MADs; part 2) of Compound A HBr in healthy participants. The study also assessed whether there were sex (part 3) and age-related (part 4) effects on the PK of a single dose of Compound A HBr. The study was approved by the local independent ethics committee; the BEBO foundation in Assen, Netherlands; and the Central Committee on Research Involving Human Subjects in The Hague, Netherlands; and conducted according to the provisions of the Declaration of Helsinki. Written informed consent was obtained from each study participant before conducting any protocol-related procedures.
Safety measurements (adverse events [AE], safety laboratory, vital signs and electrocardiograms, physical examinations) were summarized and/or listed.

cynomolgus monkeys = assay: 13-week repeat-dose oral toxicology study in monkeys; format: in vivo, cynomolgus monkey
Description: (§4) The toxicologic profile of Compound A was assessed in several toxicology studies, including 13-week repeat-dose oral studies in Sprague Dawley rats and cynomolgus monkeys, a standard battery of genotoxicity studies, preliminary embryo-fetal development studies in rats and rabbits, and in vitro and in vivo phototoxicity studies. Rats and monkeys were selected for the general toxicology studies on the basis of pharmacology and metabolism data that indicated these animals would have metabolism similar to that of humans. Studies were performed in accordance with GLP regulations.
(§5) Doses in the 13-week toxicology studies were 0, 50, 150, 450 (female), and 600 (male) mg/kg/d in Sprague Dawley rats. In cynomolgus monkeys (females and males), the doses were 0, 10, 30, and 100 mg/kg/d. Hematoxylin-and-eosin-stained sections (nominal thickness of approximately 5 μm) were prepared from the formalin-fixed paraffin-embedded organs/tissues of all animals in the toxicology studies.

[4] = as above; format: in vivo, cynomolgus monkey; settings: cynomolgus monkey, in vivo, oral
Description: as §4, §5

Compound: CC(=O)N[C@H]1CC[C@H](NC(=O)CN2CCN(c3nncc(-c4ccc(C)cc4)n3)CC2)CC1 [Compound A HBr]
- Aldosterone AUC0-24, mean (SD) (plasma aldosterone (PAC) [1]; 40 mg once daily): 1343 (702) ng × h/dL
- Aldosterone AUC0-24, mean (SD) (plasma aldosterone (PAC) [1]; 120 mg once daily): 1013 (312) ng × h/dL
- Aldosterone AUC0-24, mean (SD) (plasma aldosterone (PAC) [1]; 360 mg once daily): 771 (440) ng × h/dL
- 11-DOC and 11-deoxycortisol concentrations after ACTH stimulation (plasma aldosterone (PAC) [1]; 360 mg, Day 6, compared to placebo): trend in increase
- reduction in AUC0-24 for PAC compared to placebo (plasma aldosterone (PAC) [1]; 360 mg, after seven once-daily doses): approximately −50%
- ACTH-stimulated cortisol response (plasma aldosterone (PAC) [1]; Day 6, all multiple dose levels): no effect on the cortisol response
- ACTH-stimulated aldosterone response (plasma aldosterone (PAC) [1]; Day 6, all multiple dose levels, compared to placebo): completely blunted
- changes in serum cortisol and plasma 11-deoxycortisol concentrations (plasma aldosterone (PAC) [1]; during multiple dosing): No relevant changes from baseline
- return of baseline aldosterone levels by (plasma aldosterone (PAC) [1]): ≤ 16 h
- PAC reduction compared with placebo (plasma aldosterone (PAC) [2]; single doses of 100 and 200 mg): approximately −40%
- PAC reduction compared with placebo (plasma aldosterone (PAC) [2]; single doses of 400 and 800 mg): approximately −70%
- Aldosterone AUC0-24, mean (SD) (plasma aldosterone (PAC) [2]; single 5 mg): 1436 (531) ng × h/dL
- Aldosterone AUC0-24, mean (SD) (plasma aldosterone (PAC) [2]; single 10 mg): 1075 (418) ng × h/dL
- Aldosterone AUC0-24, mean (SD) (plasma aldosterone (PAC) [2]; single 20 mg): 911 (286) ng × h/dL
- Aldosterone AUC0-24, mean (SD) (plasma aldosterone (PAC) [2]; single 50 mg): 731 (247) ng × h/dL
- Aldosterone AUC0-24, mean (SD) (plasma aldosterone (PAC) [2]; single 100 mg): 562 (279) ng × h/dL
- Aldosterone AUC0-24, mean (SD) (plasma aldosterone (PAC) [2]; single 200 mg): 587 (115) ng × h/dL
- Aldosterone AUC0-24, mean (SD) (plasma aldosterone (PAC) [2]; single 400 mg): 403 (122) ng × h/dL
- Aldosterone AUC0-24, mean (SD) (plasma aldosterone (PAC) [2]; single 800 mg): 347 (108) ng × h/dL
- PAC returned to values near baseline within (plasma aldosterone (PAC) [2]; single 5-50 mg): ≤ 24 hours post-dose
- duration of PAC reduction (plasma aldosterone (PAC) [2]; single 100-800 mg): sustained until 24 hours post-dose
- return of baseline aldosterone levels by (plasma aldosterone (PAC) [2]): ≤ 16 h
- effect on cortisol (plasma aldosterone (PAC) [2]): no dose-related effect on cortisol
- decrease of AUC0-24 for PAC vs placebo (plasma aldosterone (PAC) [2]; single doses ranging from 10 to 800 mg): −36% to −77
- dizziness (of mild intensity), participants ([3]; across all cohorts): 9 (10.3%)
- serious AEs ([3]; healthy participants, all parts): No serious AEs

Compound: CC(=O)N[C@H]1CC[C@H](NC(=O)CN2CCN(c3nncc(-c4ccc(C)cc4)n3)CC2)CC1 [Compound A]
- accumulation of serum 11-DOC (plasma aldosterone (PAC) [1]; 40- and 120-mg daily cohorts): did not exceed the normal range
- accumulation of serum 11-DOC (plasma aldosterone (PAC) [1]; 360-mg daily dose cohort): much more dramatic increase in 11-DOC
- maximum PAC suppression maintained for (plasma aldosterone (PAC) [1]; MAD, doses of 40, 120, and 360 mg): approximately 12 hours
- return of baseline aldosterone levels at (plasma aldosterone (PAC) [1]; daily dosing): ~16 h
- return of baseline aldosterone levels by (plasma aldosterone (PAC) [1]): ≤ 16 h
- serum 11-DOC, plasma renin activity, and potassium concentrations (plasma aldosterone (PAC) [1]; once-daily administration, all dose levels compared to placebo): appeared to increase
- rise in serum potassium (plasma aldosterone (PAC) [1]; within 2 days of initiation, all 3 dose cohorts (part 2)): approximately 0.5 mmol/L
- urinary log10 (10×Na+/K+) ratio (plasma aldosterone (PAC) [2]; SAD, doses of ≥10 mg): produced an increase
- PAC (AUC0-24) reduced by (plasma aldosterone (PAC) [2]; single 100- to 200-mg doses): up to 40%
- return of baseline aldosterone levels by (plasma aldosterone (PAC) [2]): ≤ 16 h
- PAC (AUC0-24) reduced by (plasma aldosterone (PAC) [2]; single 400- to 800-mg doses): up to 70%
- effect on cortisol (plasma aldosterone (PAC) [2]): no meaningful effect on serum cortisol levels
- effects on electrocardiogram values (cynomolgus monkeys; doses up to 100 mg/kg/d): no Compound A-related effects
- effect on cortisol (cynomolgus monkeys; monkeys): no effects on cortisol
- adrenal findings (cynomolgus monkeys; monkeys, all dose levels (10, 30, 100 mg/kg/d)): Hypertrophy of zona glomerulosa cells in the adrenal cortices and decreased PACs
- NOAEL at 13 weeks ([4]; female monkeys): 10 mg/kg/day
- NOAEL at 13 weeks ([4]; male monkeys): 30 mg/kg/day
- tolerability ([3]; single doses up to 800 mg fasting, once-daily up to 360 mg fed, healthy men): well-tolerated
